Measured values taken from PubChem BioAssay AID1963969 (Molecular Pharmacology Branch, DTP, NCI, 2024).

Tested on: 817829-284-R-J1-PDC multi-cell spheroid viability
Assay: Anticancer human tumor 817829-284-R-J1-PDC patient-derived colon adenocarcinoma cell line growth inhibition [PI3K]
Settings: for IC50: curve of first compound; for viability, T/C: stronger effect = lower value
Text: Combinatorial screen of targeted agents with the PI3K inhibitors inavolisib, alpelisib, duvelisib, and copanlisib in multi-cell type tumor spheroids
A high-throughput screen of multi-cell type tumor spheroids was designed to identify active combinations of targeted small molecules and PI3K pathway inhibitors. Complex spheroids include a stromal component modeled by human endothelial cells (HUVEC) and fibroblasts modeled by human mesenchymal stem cells (MSCs). The concentration ranges selected for each drug and investigational agent were based upon clinically achievable concentrations if the clinical Cmax of the agent was known.
Compounds. The drugs and investigational agents: inavolisib (NSC800729), alpelisib (NSC765974), duvelisib (NSC772469), copanlisib (NSC816437), ipatasertib (NSC767898), afuresertib (NSC778305), talazoparib (NSC767125), sapanisertib (NSC764658), selumetinib (NSC741078), tovorafenib (DAY101, NSC766906), vemurafenib (NSC761431), ravoxertinib (NSC781343), sotorasib (NSC818433), MRTX1133 (NSC 836407), abemaciclib (NSC 768073), palbociclib (NSC758247), venetoclax (NSC 766270), SY5609 (NSC837396), enzalutamide (NSC755605), and darolutamide (NSC825331), were obtained from the National Cancer Institute (NCI) Developmental Therapeutics Program Chemical Repository. The FDA-approved anticancer drug set is available from the NCI Developmental Therapeutics Program. […] The stock solutions were prepared in dimethyl sulfoxide (DMSO, Sigma-Aldrich, St. Louis, MO, cat. D2650) at 800-fold the tested concentration and stored at -70 degrees C prior to their use. All drugs and investigational agents were tested over a range starting from a high concentration at or near the clinical Cmax and decreasing in half-log increments. If the clinical Cmax for an agent had not been determined, the highest concentration tested was 10 microM.
Cell Culture. All cells were maintained in an incubator at 37 degrees C and 5% CO2 with 95% humidity. The PDC lines were cultured according to standard operating procedures established by the NCI PDMR (https://pdmr.cancer.gov/sops/default.htm). All PDCs were thawed and cultured in Matrigel-coated flasks prepared with a working solution of 1X Ham's F-12 nutrient mix, without supplementation (Invitrogen, Waltham, MA, cat. 11765054), 100 U/mL penicillin-streptomycin (Invitrogen, cat. 15140122), and 2.5% Matrigel (Corning Inc., Corning, NY, cat. 354248) for the first three passages. The 354836-022-R-J1-PDC, 475296-252-R-J1-PDC, and 997726-040-R-J2-PDC lines were cultured in 6A media, which includes advanced DMEM/F-12 (Thermo Fisher Scientific, cat. 12634028), 10 mM HEPES (Thermo Fisher Scientific, cat. 15630080), 1X GlutaMAX supplement (Thermo Fisher Scientific, cat. 35050061), 0.1 mg/mL primocin (InvivoGen, San Diego, CA, cat. ant-pm-2), 10% defined fetal bovine serum, heat inactivated (HyClone Laboratories Inc., Logan, UT, cat. SH30070.03HI), 50% L-WRN conditioned media (ATCC, cat. CRL-3276), 1.25 mM N-Acetyl-L-cysteine (Sigma-Aldrich, cat. A9165), 10 mM nicotinamide (Sigma-Aldrich, cat. N0636), 1X B-27 supplement (Thermo Fisher Scientific, cat. 17504044), 1X N-2 supplement (Thermo Fisher Scientific, cat. 17502048), and 10 microM Y-27632 dihydrochloride (Tocris Bioscience, Bristol, United Kingdom, cat. 1254). The 624824-186-R-J2-PDC line was cultured in 6C/Colon 1B media, which includes all 6A media components plus 50 ng/mL human EGF recombinant protein (Thermo Fisher Scientific, cat. PHG0311). […]
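Note: spheroids exposed to agents for seven days before readout.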
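Throughout, for viability, T/C: percent of vehicle DMSO control viability which is 100%.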

## CC1(C)CCC(CN2CCN(c3ccc(C(=O)NS(=O)(=O)c4ccc(NCC5CCOCC5)c([N+](=O)[O-])c4)c(Oc4cnc5[nH]ccc5c4)c3)CC2)=C(c2ccc(Cl)cc2)C1 + COc1c(OCCCN2CCOCC2)ccc2c3n(c(=NC(=O)c4cnc(N)nc4)nc12)CCN3
Second compound 0.00316 µM
  IC50: > 10000 nM
Second compound 0.01 µM
  IC50: > 10000 nM
Second compound 0.0316 µM
  IC50: > 10000 nM
Second compound 0.1 µM
  IC50: < 31.6 nM
Second compound 0.316 µM
  IC50: < 31.6 nM
Second compound 1 µM
  IC50: < 31.6 nM
Second compound 0.00316 µM, first compound 0.0316 µM
  viability, T/C: 59.2%
Second compound 0.00316 µM, first compound 0.1 µM
  viability, T/C: 90.8%
Second compound 0.00316 µM, first compound 0.316 µM
  viability, T/C: 91.6%
Second compound 0.00316 µM, first compound 1 µM
  viability, T/C: 81.9%
Second compound 0.00316 µM, first compound 3.16 µM
  viability, T/C: 93.3%
Second compound 0.00316 µM, first compound 10 µM
  viability, T/C: 113%
Second compound 0.01 µM, first compound 0.0316 µM
  viability, T/C: 80.5%
Second compound 0.01 µM, first compound 0.1 µM
  viability, T/C: 74.1%
Second compound 0.01 µM, first compound 0.316 µM
  viability, T/C: 75.3%
Second compound 0.01 µM, first compound 1 µM
  viability, T/C: 64.3%
Second compound 0.01 µM, first compound 3.16 µM
  viability, T/C: 66.2%
Second compound 0.01 µM, first compound 10 µM
  viability, T/C: 69.2%
Second compound 0.0316 µM, first compound 0.0316 µM
  viability, T/C: 52.7%
Second compound 0.0316 µM, first compound 0.1 µM
  viability, T/C: 63.2%
Second compound 0.0316 µM, first compound 0.316 µM
  viability, T/C: 72.7%
Second compound 0.0316 µM, first compound 1 µM
  viability, T/C: 60.1%
Second compound 0.0316 µM, first compound 3.16 µM
  viability, T/C: 63%
Second compound 0.0316 µM, first compound 10 µM
  viability, T/C: 44.5%
Second compound 0.1 µM, first compound 0.0316 µM
  viability, T/C: 31.8%
Second compound 0.1 µM, first compound 0.1 µM
  viability, T/C: 31.6%
Second compound 0.1 µM, first compound 0.316 µM
  viability, T/C: 49.6%
Second compound 0.1 µM, first compound 1 µM
  viability, T/C: 33.3%
Second compound 0.1 µM, first compound 3.16 µM
  viability, T/C: 45.3%
Second compound 0.1 µM, first compound 10 µM
  viability, T/C: 40.1%
Second compound 0.316 µM, first compound 0.0316 µM
  viability, T/C: 18.5%
Second compound 0.316 µM, first compound 0.1 µM
  viability, T/C: 20.7%
Second compound 0.316 µM, first compound 0.316 µM
  viability, T/C: 23.2%
Second compound 0.316 µM, first compound 1 µM
  viability, T/C: 22.8%
Second compound 0.316 µM, first compound 3.16 µM
  viability, T/C: 24.7%
Second compound 0.316 µM, first compound 10 µM
  viability, T/C: 19.7%
Second compound 1 µM, first compound 0.0316 µM
  viability, T/C: 12.9%
Second compound 1 µM, first compound 0.1 µM
  viability, T/C: 11.1%
Second compound 1 µM, first compound 0.316 µM
  viability, T/C: 13.6%
Second compound 1 µM, first compound 1 µM
  viability, T/C: 14.4%
Second compound 1 µM, first compound 3.16 µM
  viability, T/C: 13.4%
Second compound 1 µM, first compound 10 µM
  viability, T/C: 11.7%

## Cn1cnc2c(F)c(Nc3ccc(Br)cc3Cl)c(C(=O)NOCCO)cc21 + Cc1nc(NC(=O)N2CCCC2C(N)=O)sc1-c1ccnc(C(C)(C)C(F)(F)F)c1
Second compound 0.0316 µM
  IC50: 289 nM
Second compound 0.1 µM
  IC50: 319 nM
Second compound 0.316 µM
  IC50: 160 nM
Second compound 1 µM
  IC50: 135 nM
Second compound 3.16 µM
  IC50: 574 nM
Second compound 10 µM
  IC50: 293 nM
Second compound 0.0316 µM, first compound 0.00949 µM
  viability, T/C: 96.6%
Second compound 0.0316 µM, first compound 0.03 µM
  viability, T/C: 63%
Second compound 0.0316 µM, first compound 0.0949 µM
  viability, T/C: 67.3%
Second compound 0.0316 µM, first compound 0.3 µM
  viability, T/C: 44.5%
Second compound 0.0316 µM, first compound 0.949 µM
  viability, T/C: 50.2%
Second compound 0.0316 µM, first compound 3 µM
  viability, T/C: 22.4%
Second compound 0.1 µM, first compound 0.00949 µM
  viability, T/C: 80.8%
Second compound 0.1 µM, first compound 0.03 µM
  viability, T/C: 62.1%
Second compound 0.1 µM, first compound 0.0949 µM
  viability, T/C: 59.7%
Second compound 0.1 µM, first compound 0.3 µM
  viability, T/C: 46.8%
Second compound 0.1 µM, first compound 0.949 µM
  viability, T/C: 49.6%
Second compound 0.1 µM, first compound 3 µM
  viability, T/C: 31.2%
Second compound 0.316 µM, first compound 0.00949 µM
  viability, T/C: 82.2%
Second compound 0.316 µM, first compound 0.03 µM
  viability, T/C: 60.4%
Second compound 0.316 µM, first compound 0.0949 µM
  viability, T/C: 62.8%
Second compound 0.316 µM, first compound 0.3 µM
  viability, T/C: 39.6%
Second compound 0.316 µM, first compound 0.949 µM
  viability, T/C: 35.3%
Second compound 0.316 µM, first compound 3 µM
  viability, T/C: 22.8%
Second compound 1 µM, first compound 0.00949 µM
  viability, T/C: 67.7%
Second compound 1 µM, first compound 0.03 µM
  viability, T/C: 44.9%
Second compound 1 µM, first compound 0.0949 µM
  viability, T/C: 48.2%
Second compound 1 µM, first compound 0.3 µM
  viability, T/C: 62%
Second compound 1 µM, first compound 0.949 µM
  viability, T/C: 27.3%
Second compound 1 µM, first compound 3 µM
  viability, T/C: 29.4%
Second compound 3.16 µM, first compound 0.00949 µM
  viability, T/C: 118%
Second compound 3.16 µM, first compound 0.03 µM
  viability, T/C: 88.8%
Second compound 3.16 µM, first compound 0.0949 µM
  viability, T/C: 74.1%
Second compound 3.16 µM, first compound 0.3 µM
  viability, T/C: 70.2%
Second compound 3.16 µM, first compound 0.949 µM
  viability, T/C: 38.8%
Second compound 3.16 µM, first compound 3 µM
  viability, T/C: 24.4%
Second compound 10 µM, first compound 0.00949 µM
  viability, T/C: 74.8%
Second compound 10 µM, first compound 0.03 µM
  viability, T/C: 70%
Second compound 10 µM, first compound 0.0949 µM
  viability, T/C: 62.4%
Second compound 10 µM, first compound 0.3 µM
  viability, T/C: 50.4%
Second compound 10 µM, first compound 0.949 µM
  viability, T/C: 31.1%
Second compound 10 µM, first compound 3 µM
  viability, T/C: 11.5%
